Test results: US9023861B2, “Anticancer combination of artemisinin-based drugs and other chemotherapeutic agents” (Sigma-Tau Industrie Farmaceutiche Riunite, S.p.A., priority 2009, dated 2015)

Key:
NCI-H460 = assay: Synergistic interaction with DHA, combination index (Chou-Talalay, SRB); format: cell-based; conditions: drug in combination with DHA (1.0-20 μM), DHA 2 h before, drug 72 h
Experimental: (§1) Tumour cells were treated for 2 h with DHA prior to exposure to further chemotherapeutic agents for 72 h. Cell survival was then evaluated through sulphorodamine B test. Data gathered from the various combination experiments were analyzed using Calcusyn software (Biosoft, Ferguson, Mo.) through the elaboration of isobolograms to determine if the combinations of DHA and the various chemotherapeutic agents were additive, synergistic or antagonistic.

A431 = assay: as above; format: cell-based; conditions: drug in combination with DHA (1.0-20 μM), DHA 2 h before, drug 72 h
Experimental: as §1

CAPAN-1 = assay: as above; format: cell-based; conditions: drug in combination with DHA (1.0-20 μM), DHA 2 h before, drug 72 h
Experimental: as §1

HCT116 = assay: as above; format: cell-based; conditions: drug in combination with DHA (1.0-20 μM), DHA 2 h before, drug 72 h
Experimental: as §1

MDA-MB436 = assay: as above; format: cell-based; conditions: drug in combination with DHA (1.0-20 μM), DHA 2 h before, drug 72 h
Experimental: as §1

[1] = tested on: HCT116 colon cancer cells; assay: In vivo antitumour activity, s.c. xenograft in CD1 nude mice; conditions: DHA 200 mg/kg p.o., AZD2281 100 mg/kg i.p., qdx5/wx4w; for antitumor effect when given singularly / tolerability (body weight loss during the treatment): HCT116 xenograft mice, ABT-888 50 mg/kg; for BWL %: body weight loss; for BWL % / TVI % / TV ± SE: HCT116 xenograft, CD1 nude mice, ABT-888 50 mg/kg i.p.; for TVI %: tumour volume inhibition; for TV ± SE: tumour volume, evaluated at about 500 mm^3
Experimental: HCT116 colon cancer cells were inoculated subcutaneously (s.c.) in the right flank of CD1 nude mice (5×10^6/0.1 ml of Medium 199). Treatments started three days after tumour injection. Mice were subdivided (8 mice/group) in the following experimental groups:
(§2) a) Vehicle (DMSO 10%) 10 ml/kg, i.p.;
b) DHA 200 mg/kg, p.o. qdx5/wx4w;
d) AZD2281+DHA (doses and schedules as above);
e) ABT-888 50 mg/kg, i.p. qdx5/wx4w;
f) ABT-888+DHA (doses and schedules as above).
DHA was administered immediately before AZD2281 or ABT-888.
The antitumour activity was evaluated according to the protocol reported hereinabove in example 3 when tumours reached a volume of about 500 mm^3.
Body weight recording was carried out to evaluate body weight loss according to the protocol reported hereinabove in example 3.

A2780/DDP = assay: Synergistic interaction with DHA, combination index (Chou-Talalay, SRB); format: cell-based; conditions: drug in combination with DHA (1.0-20 μM), DHA 2 h before, drug 72 h
Experimental: (§3) Tumour cells were grown in RPMI 1640 containing 10% foetal bovine serum and treated as described in example 1 with the exception that instead of being exposed only to ART or DHA, the cell lines were treated with the drugs reported in table 2 in combination with DHA (from 1.0 μM to 20 μM, table 2). Tumour cells were treated for 2 h with DHA prior to exposure to further chemotherapeutic agents for 72 h. Cell survival was then evaluated through sulphorodamine B test. Data gathered from the various combination experiments were analyzed using Calcusyn software (Biosoft, Ferguson, Mo.) through the elaboration of isobolograms to determine if the combinations of DHA and the various chemotherapeutic agents were additive, synergistic or antagonistic. Viability assay results (SRB) were expressed as the fraction of cells killed when exposed to a single drug or to a drug combination with respect to the untreated cells. A combination index value (CI) was determined by means of the Chou-Talalay median effect method (T-C Chou, et al., Trends Pharmacol. Sci., 1983, 4, 450), wherein synergism can be defined when CI<1 and the lower the CI parameter value, the stronger the synergism (as defined by CalcuSyn 2.0 analyzer).

SW620 = assay: as above; format: cell-based; conditions: drug in combination with DHA (1.0-20 μM), DHA 2 h before, drug 72 h
Experimental: as §3

[2] = tested on: NCI-H460 non-small cell lung carcinoma; assay: In vivo antitumor activity, s.c. xenograft in CD1 nude mice; conditions: DHA 200 mg/kg p.o., AZD2281 100 mg/kg i.p., qdx5/wx3w
Experimental: NCI-H460 non-small cell lung carcinoma cells were inoculated subcutaneously (s.c.) in the right flank of CD1 nude mice (3×10^6/0.1 ml of Medium 199). Treatments started three days after tumour injection. Mice were subdivided (10 mice/group) in the following experimental groups:
as §2
b) DHA 200 mg/kg, p.o. qdx5/wx3w;
d) AZD2281+DHA (doses and schedules as above).
For the latter experiment DHA was administered immediately before AZD2281.
To evaluate the antitumour activity, tumour diameters were measured with a Vernier calliper according to the formula TV=d^2×D/2 where d and D are the shortest and longest diameters, respectively.
When tumours reached a volume of about 1500 mm^3, mice were sacrificed by cervical dislocation. The efficacy of the drug was assessed as the tumour volume inhibition according to the formula reported underneath: […]
Body weight recording was carried out to evaluate body weight loss as calculated in the equation underneath: […]
Wherein BW day x corresponds to the mean weight at day x of the experiment meanwhile BW day 1 corresponds to the mean weight at the first day of the experiment.

LoVo/Dx MDR = assay: Anti-proliferative activity, sulphorodamine B test; format: cell-based; conditions: LoVo/Dx MDR versus LoVo
Experimental: The biological activity of DHA and ART on tumour cells survival was evaluated. The latter were seeded in 96-well tissue culture plates at approximately 10% confluence and were allowed to attach and recover for at least 24 h before being exposed to DHA or ART for 24 h at 37° C. They were then washed to remove DHA and ART and left to recover for 48 hours in medium culture. The medium culture was then removed and cells were washed three times with PBS. The plates were then incubated for on ice for 1 hour with 200 μl of PBS and 50 μl of cold 80% TCA before being washed with distilled water, dried on paper and finally at 40° C. for 5 minutes. 200 μl of 0.4% sulphorodamine B in 1% acetic acid were added and the incubation was prolonged for 30 minutes. Sulphorodamine B was removed, and the plates were washed 3 times with 1% acetic acid. They were finally dried on paper followed by standing at 40° C. for 5 minutes. Then 200 μl Tris 10 mM were added, the plates were kept under stirring for 20 minutes. Cell survival was determined as optical density at 540 nm by means of a Multiskan spectrofluorimeter. The amount of cells killed was expressed as the percentage decrease in sulphorodamine B binding compared to control cultures. IC50 were generated with their standard deviations by the ALLFIT program.

A2780 = assay: Synergistic interaction with DHA, combination index (Chou-Talalay, SRB); format: cell-based; conditions: drug in combination with DHA (1.0-20 μM), DHA 2 h before, drug 72 h
Experimental: as §3

CC[C@@]1(O)C(=O)OCc2c1cc1n(c2=O)Cc2c-1nc1ccccc1c2/C=N\OCCN [7-(2-amino)-ethoxyiminomethyl-camptothecin]
Combination index values ED50 (NCI-H460): 0.39 | Combination index values ED75 (NCI-H460): 0.24 | Combination index values ED90 (NCI-H460): 0.16

C[C@]1(c2nc3c(C(N)=O)cccc3[nH]2)CCCN1 [ABT-888]
Combination index values ED50 (A431): 0.45 | Combination index values ED75 (A431): 0.49 | Combination index values ED90 (A431): 0.37 | Combination index values ED50 (CAPAN-1): 0.59 | Combination index values ED75 (CAPAN-1): 0.32 | Combination index values ED90 (CAPAN-1): 0.22 | Combination index values ED50 (HCT116): 0.66 | Combination index values ED75 (HCT116): 0.66 | Combination index values ED90 (HCT116): 0.66 | Combination index values ED50 (MDA-MB436): 0.42 | Combination index values ED75 (MDA-MB436): 0.43 | Combination index values ED90 (MDA-MB436): 0.47 | Combination index values ED50 (NCI-H460): 0.78 | Combination index values ED75 (NCI-H460): 0.61 | Combination index values ED90 (NCI-H460): 0.49 | antitumor effect when given singularly [1]: None of them when given singularly did show any antitumor effect | tolerability (body weight loss during the treatment) [1]: well-tolerated | BWL % [1]: 0% | TVI % [1]: 2% | TV ± SE [1]: 395 ± 56

O=C(c1cc(Cc2n[nH]c(=O)c3ccccc23)ccc1F)N1CCN(C(=O)C2CC2)CC1 [AZD2281]
Combination index values ED50 (A431): 0.37 | Combination index values ED75 (A431): 0.02 | Combination index values ED90 (A431): 0.02 | Combination index values ED50 (CAPAN-1): 0.35 | Combination index values ED75 (CAPAN-1): 0.49 | Combination index values ED90 (CAPAN-1): 0.73 | Combination index values ED50 (HCT116): 0.36 | Combination index values ED75 (HCT116): 0.34 | Combination index values ED90 (HCT116): 0.31 | Combination index values ED50 (MDA-MB436): 0.28 | Combination index values ED75 (MDA-MB436): 0.30 | Combination index values ED90 (MDA-MB436): 0.68 | Combination index values ED50 (NCI-H460): 0.62 | Combination index values ED75 (NCI-H460): 0.48 | Combination index values ED90 (NCI-H460): 0.42 | Combination index values ED50 (A2780/DDP): 0.63 | Combination index values ED75 (A2780/DDP): 0.68 | Combination index values ED90 (A2780/DDP): 0.63 | Combination index values ED50 (SW620): 0.60 | Combination index values ED75 (SW620): 0.55 | Combination index values ED90 (SW620): 0.66 | antitumor effect when given singularly ([2]; NCI-H460 xenograft mice): no antitumor effect | tolerability (body weight loss during the treatment) ([2]; NCI-H460 xenograft mice): well-tolerated | BWL % ([2]; body weight loss, NCI-H460 xenograft, CD1 nude mice): 1% | TVI % ([2]; tumour volume inhibition, NCI-H460 xenograft, CD1 nude mice): 1% | TV ± SE ([2]; tumour volume, NCI-H460 xenograft, CD1 nude mice, sacrifice at about 1500 mm^3): 1603 ± 171 | antitumor effect when given singularly [1]: None of them when given singularly did show any antitumor effect | tolerability (body weight loss during the treatment) [1]: well-tolerated | BWL % [1]: 1% | TVI % [1]: 18% | TV ± SE [1]: 328 ± 52

N.N.O=C([O-])C1(C(=O)[O-])CCC1.[Pt+2] [Carboplatin, carboplatin]
Combination index values ED50 (NCI-H460): 0.53 | Combination index values ED75 (NCI-H460): 0.71 | Combination index values ED90 (NCI-H460): 0.95

N.N.[Cl][Pt][Cl] [Cisplatin, cisplatin]
Combination index values ED50 (NCI-H460): 0.79 | Combination index values ED75 (NCI-H460): 0.88 | Combination index values ED90 (NCI-H460): 0.98

COc1cccc2c1C(=O)c1c(O)c3c(c(O)c1C2=O)C[C@@](O)(C(=O)CO)C[C@@H]3O[C@H]1C[C@H](N)[C@H](O)[C@H](C)O1 [Doxorubicin, doxorubicin]
resistance index (LoVo/Dx MDR): 63 | Combination index values ED50 (NCI-H460): 0.76 | Combination index values ED75 (NCI-H460): 0.53 | Combination index values ED90 (NCI-H460): 0.37

NC(=O)c1cccc2cn(-c3ccc([C@@H]4CCCNC4)cc3)nc12 [MK-4827]
Combination index values ED50 (NCI-H460): 0.83 | Combination index values ED75 (NCI-H460): 0.83 | Combination index values ED90 (NCI-H460): 0.84

O=c1[nH]c2ccccc2c2ccccc12 [Phenanthridinone]
Combination index values ED50 (NCI-H460): 0.19 | Combination index values ED75 (NCI-H460): 0.20 | Combination index values ED90 (NCI-H460): 0.22 | Combination index values ED50 (A2780): 0.003 | Combination index values ED75 (A2780): 0.05 | Combination index values ED90 (A2780): 0.67

CCc1c2c(nc3ccc(O)cc13)-c1cc3c(c(=O)n1C2)COC(=O)[C@]3(O)CC [SN-38]
Combination index values ED50 (NCI-H460): 0.81 | Combination index values ED75 (NCI-H460): 0.68 | Combination index values ED90 (NCI-H460): 0.59
